What was measured:
SpCas9:gRNA = SpCas9:gRNA (Streptococcus pyogenes serotype M1, UniProt Q99ZW2); assay: Photo-crosslinking to purified SpCas9:gRNA; format: binding; details: 1 μM probe, 1 μM SpCas9:gRNA, UV 365 nm
Description: Cas9 RNP complex was formed by mixing Cas9 (1 μM) and the eGFP-targeting gRNA (1 μM) in a binding buffer (HEPES 20 mM, KCl 100 mM, pH 7.6) for 15 min. Next, BRD7586 (5 μM) was added to the mixture when competition is required (the last lane of FIG. 68B). Finally, Diazirine-BRD7586 was added (1 μM) and the mixture was incubated for 20 min at RT with a final reaction volume of 20 μL in a PCR tube. The mixture was irradiated with UV (365 nm) for 5 min on ice, then 2.5 μL of 10% RapiGest SF solution in PBS was added. Click chemistry was initiated by adding 100 μM of TAMRA-azide (Sigma #760757), 350 μM of Cu-TBTA, and 1.5 mM ascorbate with a final reaction volume of 27 μL. The reaction was conducted for 1 h at 30° C., then SDS-PAGE was performed immediately. The fluorescence gel scanning was conducted using an Azure 600 (Azure Biosystem) to detect the TAMRA fluorescence.

SpCas9 = SpCas9 (Streptococcus pyogenes serotype M1, UniProt Q99ZW2); assay: T7E1 assay for indels at the eGFP gene; format: cell-based; details: U2OS.eGFP.PEST, 24 h
Description: FIG. 72A-72E Validation of BRD7586 in cells FIG. 72A T7E1 assay for detecting indels at the eGFP gene. U20S.eGFP.PEST cells were nucleofected with plasmid and incubated with BRD7586 for 24 h. Blue arrowheads indicate uncleaved DNA and black arrowheads indicate cleaved DNA. FIG. 72B T7E1 for detecting indels at the eGFP gene. U20S.eGFP.PEST cells were nucleofected with RNP and incubated with BRD7586 for 24 h. Blue arrowheads indicate uncleaved DNA and black arrowheads indicate cleaved DNA FIG. 72C Inhibition of SpCas9 by BRD0539 and BRD7586 in the eGFP disruption assay using plasmid delivery method and RNP delivery method (U20S.eGFP.PEST cells, 24 h). Error bars represent SD from 3 or 4 independent experiments. […]
FIG. 75A-75E Mechanism of action studies of BRD7586 FIG. 75A Workflow of the chemoproteomics experiments using the diazirine-based photo-crosslinking probe to identify binding sites of BRD7586 on SpCas9 FIG. 75B T7E1 assay for measuring the activity of Diazirine-BRD7586. […] Blue arrowheads indicate uncleaved DNA while black arrowheads indicate cleaved DNA from the T7E1 reaction FIG. 75C Chemical structure of the acid-cleavable and isotope-coded biotin-azide used for chemoproteomics experiments FIG. 75D Structure of the peptide-compound conjugates to be detected from the mass spectrometry. […]

SpCas9:gRNA, sequence (Q99ZW2 whole entry): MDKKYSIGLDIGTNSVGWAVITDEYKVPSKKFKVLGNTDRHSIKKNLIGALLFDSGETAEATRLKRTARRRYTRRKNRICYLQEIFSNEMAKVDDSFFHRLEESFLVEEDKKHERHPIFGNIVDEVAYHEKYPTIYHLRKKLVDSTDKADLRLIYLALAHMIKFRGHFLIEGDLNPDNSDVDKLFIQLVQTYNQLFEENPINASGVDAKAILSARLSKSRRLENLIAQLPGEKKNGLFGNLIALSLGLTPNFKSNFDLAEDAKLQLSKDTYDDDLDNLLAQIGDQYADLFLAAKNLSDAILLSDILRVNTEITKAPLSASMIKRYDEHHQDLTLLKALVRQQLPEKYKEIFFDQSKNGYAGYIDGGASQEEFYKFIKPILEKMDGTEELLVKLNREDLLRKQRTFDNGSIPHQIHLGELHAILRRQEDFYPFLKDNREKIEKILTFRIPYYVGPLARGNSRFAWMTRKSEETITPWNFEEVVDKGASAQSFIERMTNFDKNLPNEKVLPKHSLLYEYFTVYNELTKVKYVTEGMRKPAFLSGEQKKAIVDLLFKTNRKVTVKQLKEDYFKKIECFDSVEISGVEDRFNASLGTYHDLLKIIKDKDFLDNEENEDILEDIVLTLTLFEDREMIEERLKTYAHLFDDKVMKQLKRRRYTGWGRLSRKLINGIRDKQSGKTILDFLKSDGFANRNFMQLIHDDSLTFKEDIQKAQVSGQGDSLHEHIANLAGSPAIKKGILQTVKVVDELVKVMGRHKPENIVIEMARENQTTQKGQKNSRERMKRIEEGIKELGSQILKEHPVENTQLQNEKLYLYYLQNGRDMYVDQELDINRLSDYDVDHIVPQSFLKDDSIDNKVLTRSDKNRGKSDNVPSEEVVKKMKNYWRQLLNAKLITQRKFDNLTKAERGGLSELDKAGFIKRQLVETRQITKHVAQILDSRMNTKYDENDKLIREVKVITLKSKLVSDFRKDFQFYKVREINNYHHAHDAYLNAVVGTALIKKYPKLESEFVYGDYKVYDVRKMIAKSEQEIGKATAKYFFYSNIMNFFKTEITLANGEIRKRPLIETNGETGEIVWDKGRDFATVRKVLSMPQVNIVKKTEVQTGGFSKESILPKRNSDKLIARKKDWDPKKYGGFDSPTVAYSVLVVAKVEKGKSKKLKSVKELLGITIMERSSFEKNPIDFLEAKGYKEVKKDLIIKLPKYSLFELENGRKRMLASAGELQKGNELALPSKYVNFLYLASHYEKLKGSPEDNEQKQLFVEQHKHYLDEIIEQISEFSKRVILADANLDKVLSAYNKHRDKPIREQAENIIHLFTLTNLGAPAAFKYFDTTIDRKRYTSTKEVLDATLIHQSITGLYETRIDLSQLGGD
SpCas9, sequence (Q99ZW2 whole entry): as above

For `C#CCCC1(CCOc2ccc(S(=O)(=O)CCC(=O)Nc3nc(-c4ccncc4)cs3)cc2)N=N1` [diazirine-BRD7586], the “Photo-crosslinking to SpCas9” value (SpCas9:gRNA) was “successful covalent conjugation of the probe to SpCas9” and the “Inhibition of SpCas9 in cells by probe” value (SpCas9) was “inhibited SpCas9 in cells”.

From patent publication US20240115557A1, “INHIBITORS OF RNA-GUIDED NUCLEASES AND USES THEREOF” (The Brigham and Women's Hospital, Inc., priority 2022, published 2024)
